Measurements reported in ChEMBL document CHEMBL2440076, “New triarylpyrazoles as broad-spectrum anticancer agents: design, synthesis, and biological evaluation” (Eur J Med Chem, 2013).

What was measured:
Assay type in all cases: functional
NCI-H322M = assay: Growth inhibition of human NCI-H322M cells assessed as cell growth at 10 uM after 48 hrs by sulforhodamine B assay; conditions: read-out: Activity
U-251 = assay: Growth inhibition of human U251 cells assessed as cell growth at 10 uM after 48 hrs by sulforhodamine B assay; conditions: U-251, 48 h, read-out: Activity
HOP-62 = assay: Growth inhibition of human HOP62 cells assessed as cell growth at 10 uM after 48 hrs by sulforhodamine B assay; conditions: HOP-62, 48 h, read-out: Activity
SK-OV-3 = assay: Growth inhibition of human SKOV3 cells assessed as cell growth at 10 uM after 48 hrs by sulforhodamine B assay; conditions: SK-OV-3, 48 h, read-out: Activity
CAKI-1 = assay: Growth inhibition of human CAKI-1 cells assessed as cell growth at 10 uM after 48 hrs by sulforhodamine B assay; conditions: CAKI-1, 48 h, read-out: Activity
PC-3 = assay: Growth inhibition of human PC3 cells assessed as cell growth at 10 uM after 48 hrs by sulforhodamine B assay; conditions: PC-3, 48 h, read-out: Activity
MDA-MB-435 = assay: Growth inhibition of human MDA-MB-435 cells assessed as cell growth at 10 uM after 48 hrs by sulforhodamine B assay; conditions: MDA-MB-435, 48 h, read-out: Activity
HOP-92 = assay: Growth inhibition of human HOP92 cells assessed as cell growth at 10 uM after 48 hrs by sulforhodamine B assay; conditions: HOP-92, 48 h, read-out: Activity
HL-60(TB) = assay: Growth inhibition of human HL-60(TB) cells assessed as cell growth at 10 uM after 48 hrs by sulforhodamine B assay; conditions: HL-60, 48 h, read-out: Activity
COLO 205 = assay: Growth inhibition of human COLO205 cells assessed as cell growth at 10 uM after 48 hrs by sulforhodamine B assay; conditions: COLO 205, 48 h, read-out: Activity
NCI-H522 = assay: Growth inhibition of human NCI-H522 cells assessed as cell growth at 10 uM after 48 hrs by sulforhodamine B assay; conditions: NCI-H522, 48 h, read-out: Activity
NCI-H23 = assay: Growth inhibition of human NCI-H23 cells assessed as cell growth at 10 uM after 48 hrs by sulforhodamine B assay; conditions: NCI-H23, 48 h, read-out: Activity
BT-549 = assay: Growth inhibition of human BT549 cells assessed as cell growth at 10 uM after 48 hrs by sulforhodamine B assay; conditions: BT-549, 48 h, read-out: Activity
LOX IMVI = assay: Growth inhibition of human LOXIMVI cells assessed as cell growth at 10 uM after 48 hrs by sulforhodamine B assay; conditions: read-out: Activity
SF-268 = assay: Growth inhibition of human SF268 cells assessed as cell growth at 10 uM after 48 hrs by sulforhodamine B assay; conditions: SF-268, 48 h, read-out: Activity
[1] = Growth inhibition of human NCI-ADR-RES cells assessed as cell growth at 10 uM after 48 hrs by sulforhodamine B assay; conditions: read-out: Activity

SMILES | growth at 10 µM (NCI-H322M) [%] | growth at 10 µM (U-251) [%] | growth at 10 µM (HOP-62) [%] | growth at 10 µM (SK-OV-3) [%] | growth at 10 µM (CAKI-1) [%] | growth at 10 µM (PC-3) [%] | growth at 10 µM (MDA-MB-435) [%] | growth at 10 µM (HOP-92) [%] | growth at 10 µM (HL-60(TB)) [%] | growth at 10 µM (COLO 205) [%] | growth at 10 µM (NCI-H522) [%] | growth at 10 µM (NCI-H23) [%] | growth at 10 µM (BT-549) [%] | growth at 10 µM (LOX IMVI) [%] | growth at 10 µM (SF-268) [%] | growth at 10 µM [1] [%]
O=C(Nc1cccc(-n2cc(-c3ccncc3)c(-c3ccc(Cl)c(O)c3)n2)c1)c1ccccc1 | 89.2 | 75.4 | 46.7 | 80.1 | 90.3 | 50.3 | 56.1 | 3.59 | 167 | 100 | 42.3 | 90.8 | 83.4 | 68.5 | 68.3 | 62.7
Cc1cc(C(=O)Nc2cccc(-n3cc(-c4ccncc4)c(-c4ccc(Cl)c(O)c4)n3)c2)ccc1Br | 107 | 92.1 | 98 | 100 | 93.9 | 86.8 | 93.4 | 97.8 | 172 | 102 | 95.2 | 97.9 | 103 | 86.4 | 104 | 99.7
